Experimental data taken from patent publication US11471394B2, “Oral care compositions containing deoxy sugar antimetabolites” (Colgate-Palmolive Company, priority 2013, dated 2022).

Key:
Assay type in all cases: cell-based
[1] = test system: biofilm of Actinomyces naeslundii (ATCC 43146), Lactobacillus casei (ATCC 334), Streptococcus oralis (ATCC 35037), Veillonella parvula (ATCC 17745) and …; assay: Example 2: biofilm formation on hydroxyapatite discs (safranine staining, absorbance at 492 nm); details: for biofilm inhibition (in words): 0.01 wt. %, Example 2; for % biofilm inhibition: compound 0.01 wt. %, 24 hours, safranine, absorbance at 492 nm
Method: (§1) A similar test protocol to Example 1 was performed and tested for its effect in the inhibition of planktonic growth and inhibition of biofilm formation
(§2) The species used for biofilm formation were: Actinomyces naeslundii (ATCC 43146). Lactobacillus casei (ATCC 334), Streptococcus oralis (ATCC 35037), Veillonella parvula (ATCC 17745) and Fusobacterium nucleatum (ATCC 10953). Strains were grown under anaerobic conditions at 37° C. for 72 hours. All the bacteria were grown on an anaerobic blood agar.
(§3) The formula for the anaerobic blood agar was as follows: 52 g/l Brain Heart Infusion Agar (DIFCO), and after autoclaving the following products are added: 1 ml/l baemin from a solution 5 mg/ml, 1 ml/l of vitamin K1 from a solution 100 μg/ml and 50 ml of horse blood. A 24 well microtiter for cell culture (Nalgene Nunc International, Denmark) was used to generate in vitro dental biofilms.
(§4) Wells were filled with 800 μl of the mucin growth medium (MGM), a modification of the medium used by Kinniment et al. (Kinniment, S. L., Wimpenny. J. W., Adams, D., and Marsh, P. D. (1996) Development of a steady-state oral microbial biofilm community using the constant-depth film fermenter. Microbiology 142 (Pt 3): 631-638) which presents a high concentration of proteins: 2.5 g/l mucin, 5 g/l Heart Infusion Broth (DIFCO), 2.0 g/l sodium bicarbonate, 1.0 g/l yeast extract and 0.1 g/l cysteine and 4 ml resazurin from a solution 25 mg/100 ml.
The pH is adjusted to 7.4 prior to autoclaving. After autoclaving the following products was added: 1 ml/l haemin from a solution 5 mg/ml and 1 mL/l of vitamin K1 from a solution 100 μg/ml. Sterile hydroxyapatite discs of 7 mm×1.8 mm (Clarkson Inc., USA) was later placed into the wells. In order to form the acquired pellicle the discs were allowed to stay at least 60 hours in contact with the medium under anaerobic conditions prior inoculation. This period of pre-incubation allows checking for possible contaminations and adjusts the final pH to 7.5.
Each of the strains grown on agar was resuspended in MGM medium until reach a turbidity of a McFarlan 3 (approximately 10^8 CFU/ml). Finally, 1 ml of each suspension from the different strains was mixed and 50 μl of this suspension was added into each of the wells in the microtiter plate. Microtiter plates were incubated under anaerobic conditions at 37° C. in an anaerobic chamber. A control of growth was performed in parallel. […]
(§5) After 24 hours planktonic phase was saved to measure growth at OD600 and hydroxyapatite disks were washed with sterile PBS and stained with safranine 0.1% for 15 minutes. […] Absorbance at 492 nm measures the amount of safranine retained by the biofilm.

[2] = test system: Actinomyces naeslundii (ATCC 43146), Lactobacillus casei (ATCC 334), Streptococcus oralis (ATCC 35037), Veillonella parvula (ATCC 17745) and Fusobacterium …; assay: Example 2: planktonic growth (OD600) in healthy biofilm model; details: for % planktonic growth inhibition: compound 0.01 wt. %, 24 hours, OD600
Method: as §1, §2, §3, §4
The pH is adjusted to 7.4 prior to autoclaving. After autoclaving the following products was added: 1 ml/l haemin from a solution 5 mg/ml and 1 mL/l of vitamin K1 from a solution 100 μg/ml. Sterile hydroxyapatite discs of 7 mm×1.8 mm (Clarkson Inc., USA) was later placed into the wells. […]
as §5

[3] = test system: five representative oral bacterial species: A. viscosus, L. casei, S. oralis, V. parvula and F. nucleatum; assay: Example 1: bacterial growth in the supernatant media of healthy biofilm model (absorbance); details: for % bacterial reduction (A): compound 0.01 wt. %, 48 hours, reduction in absorbance of supernatant media relative to disks treated with media alone
Method: (§6) 0.5″ Ca^2+-deficient hydroxyapatite (HAP) disks were coated with UV-sterilized human saliva overnight.
(§7) After 1 hour, excess treatment was removed by aspiration and disks were inoculated with 1 ml of bacteria from a continuous culture system at an OD(600) of about 0.2. The continuous culture system was maintained for approximately three months at 37° C. and contained five representative oral bacterial species: A. viscosus, L. casei, S. oralis, V. parvula and F. nucleatum. Previous work has shown this mix to form repeatable biofilms that can serve as a representation of the more complex mix of 500-700 bacterial species found in dental plaque.
(§8) The inoculated scHAP disks were incubated for 48 hours at 37° C. to allow a biofilm to form on them. After 48 hours of biofilm formation, disks were transferred to test tubes containing 1 ml of 0.25% trypsin solution. Disks were incubated at 37° C. with shaking for 45 minutes. The tubes were briefly vortexed to resuspend the bacteria, and the supernatants were then transferred to a fresh 24 well plate. Plates were […] for 2 minutes to pellet any residual HAP flakes and the supernatants were removed to fresh plates so that their absorbance could be measured at 610 nm. All samples were tested in triplicate and the average of the three wells was determined.
In addition to the absorbance of the trypsin-digested resuspended bacterial solution, similar absorbance measurements were also taken of the final supernatant media after the biofilms were allowed to grow for 48 hours.
The effect of 2-deoxy-D-glucose on bacterial growth in the supernatant media in which the biofilms were grown is shown in the table below.

[4] = test system: biofilm of five representative oral bacterial species: A. viscosus, L. casei, S. oralis, V. parvula and F. nucleatum; assay: Example 1: healthy biofilm formation on saliva-coated HAP disks (absorbance at 610 nm after trypsin); details: for % biofilm inhibition (B) / % biofilm inhibition efficiency (C): compound 0.01 wt. %; for % biofilm inhibition (B): 48 hours biofilm, reduction in absorbance relative to disks treated with media alone; for % biofilm inhibition efficiency (C): C=B/A×100%; for biofilm inhibition (in words): 0.01 wt. %, Example 1
Method: as §6, §7, §8

[5] = test system: pathogenic biofilm spiked with P. gingivalis; assay: Example 3: pathogenic biofilm model spiked with P. gingivalis; details: overall conclusion, no data given
Method: A similar experiment was conducted using a pathogenic biofilm model. Biofilms were inoculated as above for the healthy biofilms. Initial bacterial attachment and biofilm formation was allowed to proceed for 4 hours. After the initial 4 hours, each biofilm was spiked with 100 μL of an overnight culture of P. gingivalis. Biofilms were then allowed to grow for another 48 hours prior to trypsin treatment, and absorbance measurements were taken as described above.

| Molecule | biofilm inhibition (in words) [1] | % biofilm inhibition [1] | % planktonic growth inhibition [2] | % bacterial reduction (A) [3] | % biofilm inhibition (B) [4] | % biofilm inhibition efficiency (C) [4] | planktonic growth inhibition (in words) ([2]; 0.01 wt. %, Example 2) | biofilm inhibition (in words) [4] | bacterial reduction (in words) ([3]; 0.01 wt. %, Example 1) | inhibition of oral biofilm formation (in words) [5] |
| --- | --- | --- | --- | --- | --- | --- | --- | --- | --- | --- |
| N[C@H](C=O)[C@@H](O)[C@H](O)[C@H](O)CO [D-mannosamine, 2-amino-2-deoxy-D-mannose] | effective inhibition of biofilm formation | 34.01% | 0.00% | – | – | – | – | – | – | – |
| CCCCCCCCCCCCCCCC[n+]1ccccc1 [CPC, cetylpyridinium chloride] | – | – | – | 65.44% | – | – | – | – | – | – |
| O=CC[C@@H](O)[C@H](O)[C@H](O)CO [2-deoxy-D-glucose] | – | – | – | 9.81% | 30.54% | 311.31% | – | – | – | – |
| Oc1cc(Cl)ccc1Oc1ccc(Cl)cc1Cl [Triclosan] | – | – | – | 85.63% | – | – | – | – | – | – |
| Cl.NCC(O)CCC(N)C(=O)O (racemic) [DL-5-hydroxylysine HCl, reference compound] | minimal biofilm inhibition | 5.91% | 0.00% | 21.45% | 5.85% | 27.27% | no planktonic growth inhibition | negligible biofilm inhibition | significant bacterial reduction | – |
| O=C[C@H](F)[C@@H](O)[C@H](O)[C@H](O)CO [2-fluoro-2-deoxy-D-glucose] | – | – | – | 0.00% | 46.50% | >>>1000% | – | effective and efficient inhibitor of biofilm formation | – | very good inhibitors of oral biofilm formation |
| C[C@@H](O)[C@@H](O)[C@H](O)[C@@H](O)C=O [6-deoxy-D-glucose] | – | – | – | 1.54% | 25.33% | 1644.81% | – | effective and efficient inhibitor of biofilm formation | – | very good inhibitors of oral biofilm formation |
| Benzalkonium chloride [reference compound] | – | – | – | 88.21% | 52.58% | 59.61% | – | – | – | – |
